Measurements from ChEMBL document CHEMBL1201862, “PubChem BioAssay data set” (2004).
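In this assay, cells in 96-well plates receive the compound at five concentrations for 48 hours. Endpoints are linearly interpolated between the surrounding concentrations. At the GI50, growth is halved.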 Active and inactive are the calls of the source. Cut-off read from the data, not from the text of the source: active = GI50 up to about 1.1 µM and inactive = higher.

Experiments:
Experiment in all cases: NCI-60 cell line screen, 48 h
[1] = test system: OVCAR-5
[2] = test system: SNB-19
[3] = test system: HT-29
[4] = test system: TK-10
[5] = test system: NCI-H226
[6] = test system: SR
[7] = test system: MDA-MB-231
[8] = test system: NCI-H23
[9] = test system: UACC-62
[10] = test system: OVCAR-8
[11] = test system: DU-145
[12] = test system: HL-60
[13] = test system: Hs-578T
[14] = test system: M14
[15] = test system: COLO 205
[16] = test system: U-251
[17] = test system: SF-539
[18] = test system: Malme-3M
[19] = test system: NCI-H522

In the case of `Cc1cc(NS(=O)(=O)c2ccc(NC(NC(=O)C(C(F)(F)F)C(F)(F)F)(C(F)(F)F)C(F)(F)F)cc2)no1`, the GI50 [1] is reported as > 100 µM (inactive), the GI50 [2] is reported as > 100 µM (inactive) and the GI50 [3] is reported as > 100 µM (inactive). The GI50 [4] was > 100 µM (inactive), the GI50 [5] was > 100 µM (inactive) and the GI50 [6] was > 100 µM (inactive). For the same molecule, the GI50 [7] was > 100 µM (inactive), the GI50 [8] was > 100 µM (inactive) and the GI50 [9] was > 100 µM (inactive). For the same molecule, the GI50 [10] was > 100 µM (inactive), the GI50 [11] was > 100 µM (inactive) and the GI50 [12] was > 100 µM (inactive). The GI50 [13] was > 100 µM (inactive), the GI50 [14] was 58.7 µM (inactive) and the GI50 [15] was > 100 µM (inactive). The GI50 [16] was > 100 µM (inactive), the GI50 [17] was > 100 µM (inactive) and the GI50 [18] was > 100 µM (inactive).
In the case of `C/C1=C/C2=CC(C)C[C@@H]2C(=O)[C@]2(C)C(=O)CC(C)(C)[C@H]2CC1=O` (stereo partly drawn), the GI50 [1] is reported as > 50 µM (inactive), the GI50 [2] is reported as > 50 µM (inactive) and the GI50 [3] is reported as > 50 µM (inactive). For the same molecule, the GI50 [4] was > 50 µM (inactive), the GI50 [5] was > 50 µM (inactive) and the GI50 [7] was > 50 µM (inactive). The GI50 [8] was > 50 µM (inactive), the GI50 [9] was > 50 µM (inactive) and the GI50 [10] was > 50 µM (inactive). The GI50 [11] was > 50 µM (inactive), the GI50 [12] was 9.73 µM (inactive) and the GI50 [13] was > 50 µM (inactive). For the same molecule, the GI50 [14] was > 50 µM (inactive), the GI50 [15] was > 50 µM (inactive) and the GI50 [16] was > 50 µM (inactive). The GI50 [17] was > 50 µM (inactive), the GI50 [19] was > 50 µM (inactive) and the GI50 [18] was > 50 µM (inactive).
For `O=c1n(-c2ccccc2)c(=O)n2n1C1CCC2CC1`, the GI50 [1] was > 100 µM (inactive), the GI50 [2] was > 100 µM (inactive) and the GI50 [3] was > 100 µM (inactive). The GI50 [4] was > 100 µM (inactive), the GI50 [5] was > 100 µM (inactive) and the GI50 [6] was > 100 µM (inactive). The GI50 [7] was > 100 µM (inactive), the GI50 [8] was > 100 µM (inactive) and the GI50 [9] was > 100 µM (inactive). The GI50 [10] was > 100 µM (inactive), the GI50 [11] was > 100 µM (inactive) and the GI50 [12] was > 100 µM (inactive). The GI50 [13] was > 100 µM (inactive), the GI50 [14] was > 100 µM (inactive) and the GI50 [15] was > 100 µM (inactive). For the same molecule, the GI50 [16] was > 100 µM (inactive) and the GI50 [17] was > 100 µM (inactive).
`Cc1c2c(C(N)=O)nccc2c(C)c2c1c1ccccc1n2Cc1ccccc1` was tested, and the GI50 [1] was 28.6 µM (inactive), the GI50 [2] was 14.8 µM (inactive) and the GI50 [3] was 18.8 µM (inactive). For the same molecule, the GI50 [4] was 15.9 µM (inactive), the GI50 [5] was 23.7 µM (inactive) and the GI50 [7] was 9.75 µM (inactive). The GI50 [8] was 23.1 µM (inactive), the GI50 [9] was 60.4 µM (inactive) and the GI50 [10] was 10.6 µM (inactive). The GI50 [11] was 27.7 µM (inactive), the GI50 [12] was 23.3 µM (inactive) and the GI50 [13] was 6.07 µM (inactive). The GI50 [14] was 56.2 µM (inactive), the GI50 [15] was > 10 µM (inactive) and the GI50 [16] was 9.04 µM (inactive). The GI50 [17] was 19.1 µM (inactive) and the GI50 [19] was 23.7 µM (inactive).
In the case of `CCOC(=O)Cc1nc2c(O)ncnc2n1C1OC(COC(C)=O)C(OC(C)=O)C1OC(C)=O` (stereo not drawn), the GI50 [1] is reported as > 100 µM (inactive), the GI50 [2] is reported as > 100 µM (inactive) and the GI50 [3] is reported as > 100 µM (inactive). For the same molecule, the GI50 [4] was > 100 µM (inactive), the GI50 [5] was > 100 µM (inactive) and the GI50 [7] was > 100 µM (inactive). For the same molecule, the GI50 [8] was > 100 µM (inactive), the GI50 [9] was > 100 µM (inactive) and the GI50 [10] was > 100 µM (inactive). The GI50 [11] was > 100 µM (inactive), the GI50 [12] was > 100 µM (inactive) and the GI50 [13] was > 100 µM (inactive). For the same molecule, the GI50 [14] was > 100 µM (inactive), the GI50 [15] was > 100 µM (inactive) and the GI50 [16] was > 100 µM (inactive). For the same molecule, the GI50 [17] was > 100 µM (inactive), the GI50 [19] was > 100 µM (inactive) and the GI50 [18] was > 100 µM (inactive).
`O=c1[nH]c(=O)n(C2CC(O)C(COP(=O)(OCC(Cl)(Cl)Cl)OCC(Cl)(Cl)Cl)O2)cc1F` (stereo not drawn) was tested, and the GI50 [1] was > 94.2 µM (inactive), the GI50 [2] was 7.98 µM (inactive) and the GI50 [3] was 9.23 µM (inactive). For the same molecule, the GI50 [4] was > 100 µM (inactive), the GI50 [5] was 95.1 µM (inactive) and the GI50 [6] was 0.391 µM (active). For the same molecule, the GI50 [7] was > 47 µM (inactive), the GI50 [8] was 8.63 µM (inactive) and the GI50 [9] was 0.396 µM (active). For the same molecule, the GI50 [10] was 0.556 µM (active), the GI50 [11] was 2.81 µM (inactive) and the GI50 [12] was 5.85 µM (inactive). The GI50 [13] was 52.7 µM (inactive), the GI50 [14] was 2 µM (inactive) and the GI50 [15] was 23.5 µM (inactive). The GI50 [16] was 2.95 µM (inactive) and the GI50 [18] was 6.05 µM (inactive).
`NC(=O)NCCSC1CCCCC1O` (stereo not drawn) was tested, and the GI50 [1] was > 100 µM (inactive), the GI50 [2] was > 100 µM (inactive) and the GI50 [3] was > 100 µM (inactive). The GI50 [4] was > 100 µM (inactive), the GI50 [5] was > 100 µM (inactive) and the GI50 [6] was > 100 µM (inactive). The GI50 [7] was > 100 µM (inactive), the GI50 [8] was > 100 µM (inactive) and the GI50 [9] was > 100 µM (inactive). The GI50 [10] was > 100 µM (inactive), the GI50 [11] was > 100 µM (inactive) and the GI50 [13] was > 100 µM (inactive). The GI50 [14] was > 100 µM (inactive), the GI50 [15] was > 100 µM (inactive) and the GI50 [16] was > 100 µM (inactive). The GI50 [17] was > 100 µM (inactive), the GI50 [19] was > 100 µM (inactive) and the GI50 [18] was > 100 µM (inactive).
